Source: patent publication US20140349945A1, “PEG-AMINO ACID-OLIGOPEPTIDE-IRINOTECAN DRUG CONJUGATES AND THE PHARMACEUTICAL COMPOSITIONS” (JENKEM TECHNOLOGY CO., LTD. (BEIJING), priority 2011, published 2014)
Marks after values point to notes of the source that are not given here.

Columns and labels:
[1] = test system: human colon cancer cells HCT-116; assay: Inhibitory effect on transplanted tumors of human colon cancer cells HCT-116 in nude mice; settings: for Weight At the beginning / Weight At lats: HCT-116 tumor-bearing nude mice; for Weight At the beginning: baseline; for Weight At lats: end of experiment
Excerpt: BALB/cA nude mice (male, 4-6 weeks old, weighed 19±2 g) were provided by the Shanghai Institute of Materia Medica, Chinese Academy of Sciences. […] Animal numbers of each group: 12 mice in negative control group and 6 mice in treatment group.
5×10^6 cells were subcutaneously inoculated in the right armpit of each nude mouse. The transplanted tumors were transferred in nude mice for two generations before utilization.
(§1) Vigorous tumor tissues were cut into pieces of about 1.5 mm3 and then subcutaneously inoculated to the right armpit nude mice under sterile conditions. The diameters of the subcutaneous transplanted tumors were measured using a vernier caliper. The animals were randomly grouped when the tumors grew to 100-200 mm3.
(§2) After the administration, the animals were observed consecutively for one week. During the whole experiment, diameters of the transplanted tumors were measured and the animals were weighed two times a week. The tumor volume (TV) was calculated as follows: TV=½×a×b^2, wherein, a and b represented length and width respectively. According to the results of measurements, the relative tumor volumes (RTV) were calculated as follows: RTV=Vt/V0. Wherein, V0 were the volumes measured at administration after caging (i.e. d0), Vt were the tumor volumes of every measurements.

[2] = test system: human colon cancer cells HT-29; assay: Inhibitory effect on transplanted tumors of human colon cancer cells HT-29 in nude mice; settings: for Weight At the beginning / Weight At lats: HT-29 tumor-bearing nude mice; for Weight At the beginning: baseline; for Weight At lats: end of experiment
Excerpt: (§3) BALB/cA nude mice (male, 5-6 weeks old, weighed 18±2 g) were provided by the Shanghai Institute of Materia Medica, Chinese Academy of Sciences. […] Animal numbers of each group: 12 mice in negative control group and 6 mice in treatment group.
Human colon tumor cell strains HT-29 were purchased from ATCC. 5×10^6 cells were subcutaneously inoculated in the right armpit of each nude mouse. The transplanted tumors were transferred in nude mice for two generations before utilization.
as §1, with “mm^3” for “mm3”, “mm^3.” for “mm3.”
as §2

[3] = test system: human lung cancer cells A549; assay: Inhibitory effect on transplanted tumors of human lung cancer cells A549 in nude mice; settings: for Weight At the beginning: A549 tumor-bearing nude mice, baseline
Excerpt: as §3
Human lung tumor cell strains A549 were purchased from ATCC. 5×10^6 cells were subcutaneously inoculated in the right armpit of each nude mouse. The transplanted tumors were transferred in nude mice for two generations before utilization.
as §1, §2

[4] = test system: human ovarian cancer cells SKOV-3; assay: Inhibitory effect on transplanted tumor of human ovarian cancer cells SKOV-3 in nude mice; settings: for TV (mean ± SD) d 28 / number of animals with tumor regression: d 28; for number of animals with tumor regression: 6 mice per group; for Weight At the beginning / Weight At lats: SKOV-3 tumor-bearing nude mice; for Weight At the beginning: baseline; for Weight At lats: end of experiment
Excerpt: as §3
Human […] tumor cell strains SKOV-3 were purchased from ATCC. 5×10^6 cells were subcutaneously inoculated in the right armpit of each nude mouse. The transplanted tumors were transferred in nude mice for two generations before utilization.
as §1, §2

[5] = test system: human colon cancer cells SW-620; assay: Inhibitory effect on transplanted tumor of human colon cancer cells SW-620 in nude mice; settings: for RTV mean ± SD) / TV (mean ± SD) d 28 / number of animals with tumor regression: SW-620, d 28; for number of animals with tumor regression: 6 mice per group; for Weight At the beginning / Weight At last: SW-620 tumor-bearing nude mice; for Weight At the beginning: baseline; for Weight At last: end of experiment
Excerpt: as §3
Human […] tumor cell strains SW-620 were purchased from ATCC. 5×10^6 cells were subcutaneously inoculated in the right armpit of each nude mouse. The transplanted tumors were transferred in nude mice for two generations before utilization.
as §2, with “Vigorous tumor tissues were cut into pieces of about 1.5 mm3 and then subcutaneously inoculated to the right armpit nude mice under sterile conditions. The diameters of the subcutaneous transplanted tumors were measured using a vernier caliper. The animals were randomly grouped when the tumors grew to 100-200 mm3. […] After” for “After”

Weight At the beginning ([1]; 15 mg/kg, iv q3w × 3w): 19.1 g
Weight At lats ([1]; 15 mg/kg, iv q3w × 3w): 16.6 g
Weight At the beginning ([1]; 45 mg/kg, iv qw × 3w): 19.2 g
Weight At lats ([1]; 45 mg/kg, iv qw × 3w): 15.1 g
Weight At the beginning ([2]; 15 mg/kg, iv q3w × 3w): 18.2 g
Weight At lats ([2]; 15 mg/kg, iv q3w × 3w): 16.0 g
Weight At the beginning ([2]; 45 mg/kg, iv qw × 3w): 18.6 g
Weight At lats ([2]; 45 mg/kg, iv qw × 3w): 16.2 g
Weight At the beginning ([3]; 15 mg/kg, iv q3w × 3w): 18.1 g
Weight At the beginning ([3]; 45 mg/kg, iv qw × 3w): 18.4 g
Weight At the beginning ([4]; 15 mg/kg, iv q3w × 3w): 18.9 g
Weight At lats ([4]; 15 mg/kg, iv q3w × 3w): 18.0 g
Weight At the beginning ([4]; 45 mg/kg, iv qw × 3w): 19.7 g
Weight At lats ([4]; 45 mg/kg, iv qw × 3w): 18.4 g
Weight At the beginning ([5]; 15 mg/kg, iv q3w × 3w): 19.7 g
Weight At last ([5]; 15 mg/kg, iv q3w × 3w): 24.2 g
Weight At the beginning ([5]; 45 mg/kg, iv qw × 3w): 18.8 g
Weight At last ([5]; 45 mg/kg, iv qw × 3w): 21.8 g
Compound: CCc1c2c(nc3ccc(OC(=O)N4CCC(N5CCCCC5)CC4)cc13)-c1cc3c(c(=O)n1C2)COC(=O)[C@]3(O)CC [CPT-11, Irinotecan]
TV (mean ± SD) d 28 ([1]; 15 mg/kg, iv q3w × 3w, HCT-116): 322 ± 37 mm^3
body weight change during the whole experiment (in words) ([1]; 45 mg/kg group, compared with solvent control group, HCT-116): slightly higher weight loss
TV (mean ± SD) d 28 ([1]; 45 mg/kg, iv qw × 3w, HCT-116): 512 ± 99 mm^3
body weight change during the whole experiment (in words) ([2]; two groups treated with different doses (15 and 45 mg/kg), HT-29): underwent weight loss
TV (mean ± SD) d 28 ([3]; 15 mg/kg, iv q3w × 3w, A549, d 28): 831 ± 305 mm^3
RTV mean ± SD) ([3]; 45 mg/kg, iv qw × 3w, A549, d 28): 9.87 ± 4.87 ^
TV (mean ± SD) d 28 ([4]; 15 mg/kg, iv q3w × 3w, SKOV-3): 924 ± 443 mm^3
number of animals with tumor regression ([4]; 15 mg/kg, iv q3w × 3w, SKOV-3): 0
TV (mean ± SD) d 28 ([4]; 45 mg/kg, iv qw × 3w, SKOV-3): 1753 ± 878 mm^3
number of animals with tumor regression ([4]; 45 mg/kg, iv qw × 3w, SKOV-3): 0
body weight change during the whole experiment (in words) ([4]; CPT-11 both dose groups, CPT-1 45 mg/kg, SKOV-3): slight weight loss
RTV mean ± SD) ([5]; 15 mg/kg, iv q3w × 3w): 0.02 ± 0.02**^,
TV (mean ± SD) d 28 ([5]; 15 mg/kg, iv q3w × 3w): 2.09 ± 1.51 mm^3
number of animals with tumor regression ([5]; 15 mg/kg, iv q3w × 3w): 0
RTV mean ± SD) ([5]; 45 mg/kg, iv qw × 3w): 6.60 ± 1.56
TV (mean ± SD) d 28 ([5]; 45 mg/kg, iv qw × 3w): 877 ± 324 mm^3
number of animals with tumor regression ([5]; 45 mg/kg, iv qw × 3w): 0
